Literature values in patent US20090118293A1 (priority 2004, published 2009).
Where a name gives a salt, the structure may show the parent alone.

Row | Solubility in alcohol (alcohol) | Solubility in ether (ether) | Compound | Solubility in water | Solubility in organic solvents (organic solvents such as ethanol, ether and chloroform)
1 | slightly soluble | very slightly soluble | NNc1nncc2ccccc12 [hydralazine hydrochloride] | soluble | 
2 |  |  | O=[N+]([O-])O[C@H]1CO[C@H]2[C@@H]1OC[C@H]2O[N+](=O)[O-] [isosorbide dinitrate, 1,4,3,6-dianhydro-D-glucitol-2,5-dinitrate] | sparingly soluble | freely soluble
